Assay results reported in patent publication US9422338B2 (EpoDose LLC, priority 2011, dated 2016).

Target: T1, EPOR (erythropoietin receptor), human recombinant, NSO cells (Homo sapiens, UniProt P19235)
T1 construct: host or cells: NSO cells
T1 sequence (P19235 25-250 limits assumed): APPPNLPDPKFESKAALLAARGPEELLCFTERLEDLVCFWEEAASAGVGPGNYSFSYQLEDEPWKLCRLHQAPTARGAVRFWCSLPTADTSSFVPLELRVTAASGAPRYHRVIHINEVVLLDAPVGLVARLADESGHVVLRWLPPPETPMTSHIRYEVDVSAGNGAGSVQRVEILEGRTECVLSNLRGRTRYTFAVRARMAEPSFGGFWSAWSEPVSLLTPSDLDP
Assay: EPOR radioligand binding assay ([125I] Erythropoietin competition)
Method: IC50 values were determined by a non-linear, least squares regression analysis using MATHIQ™ (computer software for integrating mathematical functions into new or existing software). […] Where presented, the Hill coefficient (nH), defining the slope of the competitive binding curve, was calculated using MATHIQ™.

[1] = Example 2, mimetics varied in loop, mid and C-end
[2] = Example 1, mimetics varied in N-end, loop and mid sequences

SMILES | Ki [1] | IC50 (Example 4, sixth table) | Ki [2] | IC50 (Example 4, fourth table) | IC50 (Example 3) | Ki (Example 3, Cheng-Prusoff) | IC50 (Example 4, fifth table)
CSCC[C@@H]1NC(=O)[C@H](CCCNC(=N)N)NC(=O)C(NC(=O)[C@H](CC(C)C)NC(=O)[C@H](Cc2ccc(O)cc2)NC(=O)[C@H](CC(N)=O)NC(C)=O)CCOCC(C(=O)N[C@@H](CCCCN)C(=O)N2CCC[C@H]2C(=O)NCCCCC(=O)NCCCCC(NC(=O)[C@@H]2CCCN2C(=O)[C@H](CCCCN)NC(=O)C2COCCC(NC(=O)[C@H](CC(C)C)NC(=O)[C@H](Cc3ccc(O)cc3)NC(=O)[C@H](CC(N)=O)NC(C)=O)C(=O)N[C@@H](CCCNC(=N)N)C(=O)N[C@@H](CCSC)C(=O)N[C@@H](CC(C)C)C(=O)N[C@@H](Cc3c[nH]c4ccccc34)C(=O)N[C@@H](C(C)C)C(=O)N2)C(N)=O)NC(=O)[C@H](C(C)C)NC(=O)[C@H](Cc2c[nH]c3ccccc23)NC(=O)[C@H](CC(C)C)NC1=O (some centres unmarked) [AC-0005-024] |  |  | 34 nM | 72 nM |  |  | 
CSCC[C@@H]1NC(=O)[C@H](Cc2c[nH]cn2)NC(=O)C(NC(=O)[C@H](CC(C)C)NC(=O)[C@H](Cc2ccc(O)cc2)NC(=O)[C@H](CC(N)=O)NC(C)=O)CCOCC(C(=O)N[C@@H](CCCCNC(=N)N)C(=O)N2CCC[C@H]2C(=O)NCCCCC(=O)NCCCCC(NC(=O)[C@@H]2CCCN2C(=O)[C@H](CCCCNC(=N)N)NC(=O)C2COCCC(NC(=O)[C@H](CC(C)C)NC(=O)[C@H](Cc3ccc(O)cc3)NC(=O)[C@H](CC(N)=O)NC(C)=O)C(=O)N[C@@H](Cc3c[nH]cn3)C(=O)N[C@@H](CCSC)C(=O)N3CCC[C@H]3C(=O)N[C@@H](Cc3c[nH]c4ccccc34)C(=O)N[C@@H](C(C)C)C(=O)N2)C(N)=O)NC(=O)[C@H](C(C)C)NC(=O)[C@H](Cc2c[nH]c3ccccc23)NC(=O)[C@@H]2CCCN2C1=O (some centres unmarked) [AC-0005-054] |  |  | 15.5 nM |  | 65.1 nM | 30.9 nM | 33 nM
CSCC[C@@H]1NC(=O)[C@H](CCCNC(=N)N)NC(=O)C(NC(=O)[C@H](CC(C)C)NC(=O)[C@H](Cc2ccc(O)cc2)NC(=O)[C@H](CC(N)=O)NC(C)=O)CCOCC(C(=O)N[C@@H](CCCCNC(=N)N)C(=O)N2CCC[C@H]2C(=O)NCCCCC(=O)NCCCCC(NC(=O)[C@@H]2CCCN2C(=O)[C@H](CCCCNC(=N)N)NC(=O)C2COCCC(NC(=O)[C@H](CC(C)C)NC(=O)[C@H](Cc3ccc(O)cc3)NC(=O)[C@H](CC(N)=O)NC(C)=O)C(=O)N[C@@H](CCCNC(=N)N)C(=O)N[C@@H](CCSC)C(=O)N3CCC[C@H]3C(=O)N[C@@H](Cc3c[nH]c4ccccc34)C(=O)N[C@@H](C(C)C)C(=O)N2)C(N)=O)NC(=O)[C@H](C(C)C)NC(=O)[C@H](Cc2c[nH]c3ccccc23)NC(=O)[C@@H]2CCCN2C1=O (some centres unmarked) [AC-0005-051] |  |  | 4.6 nM |  | 10.1 nM | 4.8 nM | 9.6 nM

More lines, now with the values ahead:

Ki [1] | IC50 (Example 4, sixth table) | Ki [2] | IC50 (Example 4, fourth table) | IC50 (Example 3) | Ki (Example 3, Cheng-Prusoff) | IC50 (Example 4, fifth table) | SMILES
0.6 nM | 1.3 nM |  |  |  |  |  | CSCC[C@@H]1NC(=O)[C@H](CCCNC(=N)N)NC(=O)C(NC(=O)[C@H](CC(C)C)NC(=O)[C@H](Cc2ccc(O)cc2)NC(=O)[C@H](CC(N)=O)NC(C)=O)CCOCC(C(=O)N[C@@H](CCCCNC(=N)N)C(=O)N2CCC[C@H]2C(=O)NCCCOCCC(OCCCNC(=O)[C@@H]2CCCN2C(=O)[C@H](CCCCNC(=N)N)NC(=O)C2COCCC(NC(=O)[C@H](CC(C)C)NC(=O)[C@H](Cc3ccc(O)cc3)NC(=O)[C@H](CC(N)=O)NC(C)=O)C(=O)N[C@@H](CCCNC(=N)N)C(=O)N[C@@H](CCSC)C(=O)N3CCC[C@H]3C(=O)N[C@@H](Cc3ccc4ccccc4c3)C(=O)N[C@@H](C(C)C)C(=O)N2)C(N)=O)NC(=O)[C@H](C(C)C)NC(=O)[C@H](Cc2ccc3ccccc3c2)NC(=O)[C@@H]2CCCN2C1=O (some centres unmarked) [AC-0005-064]
1.2 nM | 2.4 nM |  |  |  |  |  | CSCC[C@@H]1NC(=O)[C@H](CCCNC(=N)N)NC(=O)C(NC(=O)[C@H](CC(C)C)NC(=O)[C@H](Cc2ccc(O)cc2)NC(=O)[C@H](CC(N)=O)NC(C)=O)CCOCC(C(=O)N[C@@H](CCCCN)C(=O)N2CCC[C@H]2C(=O)NC(CCCCNC(=O)CCCC(NC(=O)[C@@H]2CCCN2C(=O)[C@H](CCCCN)NC(=O)C2COCCC(NC(=O)[C@H](CC(C)C)NC(=O)[C@H](Cc3ccc(O)cc3)NC(=O)[C@H](CC(N)=O)NC(C)=O)C(=O)N[C@@H](CCCNC(=N)N)C(=O)N[C@@H](CCSC)C(=O)N3CCC[C@H]3C(=O)N[C@@H](Cc3ccc4ccccc4c3)C(=O)N[C@@H](C(C)C)C(=O)N2)C(=O)NCCC(=O)N[C@@H](CCCNC(=N)N)C(N)=O)C(=O)NCCC(=O)N[C@@H](CCCNC(=N)N)C(N)=O)NC(=O)[C@H](C(C)C)NC(=O)[C@H](Cc2ccc3ccccc3c2)NC(=O)[C@@H]2CCCN2C1=O (some centres unmarked) [AC-0005-062]
